Data as given in US8546416B2, “3-spirocyclic piperidine derivatives as ghrelin receptor agonists” (Novartis AG, priority 2011, dated 2013).

Assays:
[1] = biological target: T1, human recombinant ghrelin receptor (GHS-R1a) (Homo sapiens, UniProt Q92847); experiment: hGHS-R1a cAMP assay (HTRF cAMP dynamic 2 kit, CHO-hGHS-R1a cells); assay type: cell-based; conditions: 60 min incubation, dose response up to 30 μM
T1 construct: host or cells: CHO-K1
Description: (§1) Chinese hamster ovary (CHO-K1) cells expressing human recombinant ghrelin receptor (GHS-R1a) were purchased from Euroscreen (ES-410-C) and propagated in UltraCHO medium containing glutamine and supplemented with 1% heat inactivated foetal calf serum (FCS), 100 U/ml penicillin, 100 mg/l streptomycin and 0.8 g/l geneticin. Cells were sub-cultured twice a week with a 1:10 dilution. For passaging, cells were washed with 1×DPBS without calcium and magnesium, trypsinised for 10 min with 0.05% Trypsin/EDTA and resuspended in cell culture medium.
The Homogeneous Time-Resolved Fluorescence (HTRF) cAMP dynamic 2 kit (Cisbio International, France) was used as follows. CHO-hGHS-R1a or CHO-rGHS-R1a cells were seeded in a volume of 25 μl culture media at 10,000 cells/well (400,000 cells/ml) in Greiner white 384-well high volume plates and incubated overnight (18-24 h) at 37° C./5% CO2. Then, media was removed and 6 μl assay buffer [HBSS, 10 mM Hepes, 0.2% (w/v) BSA, 1.7 mM IBMX, (pH7.4)] were added to the wells. To generate a dose response up to 30 μM, 10 mM compound stocks in 100% (v/v) DMSO were firstly diluted in 50% (v/v) DMSO followed by a further dilution into assay buffer. Then, 4 μl of 2.5× compound (dose response as 9 point log serial dilution in assay buffer from 30 μM as maximum concentration) were added to each well achieving a final DMSO assay concentration of 0.8% (v/v). 0.1 μM forskolin was added as positive control. After 30 min (rGHS-R1a cell line) or 60 min (hGHS-R1a cell line) incubation at 37° C./5% CO2, 5 μl of cAMP-d2 and 5 μl of anti-cAMP antibody-cryptate, (both made in lysis buffer), were added to the plate followed by 1 h incubation at RT. During this time, cAMP produced by the cells competed with cAMP-d2 for the anti-cAMP antibody-cryptate molecule. Then, the plate was read on the Pherastar instrument (BMG, Germany) at two different emission wavelengths (620 and 650 nm). Increasing levels of endogenous cAMP produced by cells could be followed by a decrease of FRET fluorescent signal and viceversa. Values represented by a change in arbitrary fluorescence ratios (665/620) were converted into cAMP concentrations by using a standard curve, the reagents for which were supplied with the kit. EC50 values of agonists were calculated using the nonlinear logistic function of the Prism 5 software (GraphPad, USA). Emax were expressed as relative values of the ghrelin response, which was defined as 100%.

[2] = biological target: T1, human recombinant ghrelin receptor (GHS-R1a); experiment: hGHS-R1a Ca assay (Fluo-4 calcium assay in CHO-K1 cells); assay type: cell-based; conditions: for EC50: CHO-K1 cells expressing human GHS-R1a, agonist dose response up to 30 μM
Description: as §1
Cells were diluted to achieve 1×10^6 cells/ml, seeded in 384-well black clear bottom CellBind plates at 25000 cells/well (25 ul) and incubated overnight at 37° C./5% CO2 Cells were expected to be 85-90% confluent on the day of assay (checked under the microscope) to ensure a high quality assay. Media was manually removed and 40 μl of loading solution containing probenecid and Fluo-4 no wash dye (a calcium indicator, Invitrogen F36206) were added to each well. After 30 min at 37° C. followed by another 30 min at RT, cpds were added to the wells. To generate a dose response up to 30 μM, 10 mM compound stocks in 100% (v/v) DMSO were firstly diluted in 50% (v/v) DMSO. Then, serial dilutions aimed at a full logarithmic dose responses (8 point) were performed in assay buffer [1×HBSS, 20 mM Hepes, 0.1% (w/v) BSA] to give 2.5% (v/v) DMSO and 5× final compound concentrations. The final assay DMSO concentration was 0.5% (v/v). After loading the cells with Fluo-4 containing solution, plates were read on a CellLux instrument (Perkin Elmer). A protocol set up to add 10 μl of 5× compound and to read the plate for 60 sec after adding the compound at 17th sec was used. Fluorescence excitation took place at 494 nm and emission at 516 nm. EC50 values of agonists were calculated by fitting the percent stimulation over background [(Max−Min)/Min] using the nonlinear logistic function of the Prism 5 software (GraphPad, USA).

T1 sequence (Q92847 whole entry): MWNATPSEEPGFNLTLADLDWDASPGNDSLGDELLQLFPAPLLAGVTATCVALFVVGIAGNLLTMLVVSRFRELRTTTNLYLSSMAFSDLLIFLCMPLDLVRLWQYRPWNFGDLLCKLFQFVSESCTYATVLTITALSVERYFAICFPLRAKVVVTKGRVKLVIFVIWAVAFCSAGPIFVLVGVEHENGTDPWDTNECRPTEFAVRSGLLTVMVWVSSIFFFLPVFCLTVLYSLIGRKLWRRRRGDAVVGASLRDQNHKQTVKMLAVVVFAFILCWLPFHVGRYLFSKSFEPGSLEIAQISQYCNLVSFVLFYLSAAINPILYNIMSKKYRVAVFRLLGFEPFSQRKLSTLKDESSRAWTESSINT

Row | Structure (SMILES) | EC50 [1] | EC50 [2] | Emax ([2]; CHO-K1, relative to Emax induced by MK-0677 (defined as 100%))
1 | CN1CC(c2ccccc2)C2(CCCN(C(=O)[C@@H](COCc3ccc(F)cc3)NC(=O)C(C)(C)N)C2)C1=O (single isomer, unassigned) [Example 7.0, 2-Amino-N-[(R)-1-(4-fluoro-benzyloxymethyl)-2-(4S,5R)-2-methyl-1-oxo-4-phenyl-2,7-diaza-spiro[4.5]dec-7-yl)-2-oxo-ethyl]-2-methyl-propionamide or 2-Amino-N-[(R)-1-(4-fluoro-benzyloxymethyl)-2-(4R,5S)-2-methyl-1-oxo-4-phenyl-2,7-diaza-spiro[4.5]dec-7-yl)-2-oxo-ethyl]-2-methyl-propionamide] | 0.138 µM | 0.00017 µM | 
2 | Cc1ccc(COC[C@@H](NC(=O)C(C)(C)N)C(=O)N2CCCC3(C2)C(=O)N(C)CC3c2ccc(F)cc2)cc1 (single isomer, unassigned) [Example 1.29] | 0.049 µM | 0.00035 µM | 
3 | CN1CC(c2ccc(F)cc2)C2(CCCN(C(=O)[C@@H](COCc3ccc(Cl)cc3)NC(=O)C(C)(C)N)C2)C1=O (single isomer, unassigned) [Example 1.57] | 0.043 µM | 0.00022 µM | 
4 | C[C@H](OCc1ccccc1)[C@@H](NC(=O)C(C)(C)N)C(=O)N1CCCC2(C1)C(=O)N(C)CC2c1ccccc1 (single isomer, unassigned) [Example 1.34] | 0.184 µM | 0.0005 µM | 
5 | CN1CC(c2ccccc2)C2(CCCN(C(=O)[C@@H](COCC3CCCCC3)NC(=O)C(C)(C)N)C2)C1=O (single isomer, unassigned) [Example 1.60] | 0.047 µM | 0.0003 µM | 
6 | Cc1ccccc1C1CN(C)C(=O)C12CCCN(C(=O)[C@@H](COCc1ccccc1)NC(=O)C(C)(C)N)C2 (single isomer, unassigned) [Example 1.51] | 0.067 µM | 0.0002 µM | 
7 | CN1C[C@@H](c2ccccc2)[C@@]2(CCCN(C(=O)[C@@H](COCc3ccccc3)NC(=O)C(C)(C)N)C2)C1=O (single isomer, unassigned) [Example 1.0(ii)] | 0.043 µM | 0.00016 µM | 
8 | CN1C[C@@H](c2ccc(F)cc2)[C@@]2(CCCN(C(=O)[C@@H](COCc3ccccc3)NC(=O)C(C)(C)N)C2)C1=O [Example 1.2, 2-Amino-N-((2R)-3-(benzyloxy)-1-((4S,5R)-4-(4-fluorophenyl)-2-methyl-1-oxo-2,7-diazaspiro[4.5]decan-7-yl)-1-oxopropan-2-yl)-2-methylpropanamide] | 0.055 µM | 0.0001 µM | 
9 | Cc1ccc(C2CN(C)C(=O)C23CCCN(C(=O)[C@@H](COCc2ccccc2)NC(=O)C(C)(C)N)C3)cc1 (single isomer, unassigned) [Example 1.53] | 0.036 µM | 0.00011 µM | 
10 | COc1ccc(C2CN(C)C(=O)C23CCCN(C(=O)[C@@H](COCc2ccccc2)NC(=O)C(C)(C)N)C3)cc1 (stereo partly drawn) [Example 1.74, 2-amino-N-((2R)-3-(benzyloxy)-1-(4-(4-methoxyphenyl)-2-methyl-1-oxo-2,7-diazaspiro[4.5]decan-7-yl)-1-oxopropan-2-yl)-2-methylpropanamide] | 5.9 µM | 0.0054 µM | 
11 | CN1CN(c2ccccc2)C2(CCCN(C(=O)[C@@H](COCc3ccccc3)NC(=O)C(C)(C)N)C2)C1=O (single isomer, unassigned) [Example 1.61] | 0.517 µM | 0.0029 µM | 
12 | CNC(C)(C)C(=O)N[C@H](COCc1ccccc1)C(=O)N1CCCC2(C1)C(=O)N(C)CC2c1ccccc1 (single isomer, unassigned) [Example 1.17] | 0.082 µM | 0.001 µM | 
13 | CN1CC(c2ccccc2)C2(CCCN(C(=O)[C@@H](COCc3ccccc3)NC(=O)C(C)(C)N)C2)C1=O (single isomer, unassigned) [Example 1.21] | 1.93 µM | 0.0021 µM | 
14 | CN1CC(c2ccccc2)C2(CCCN(C(=O)[C@@H](CCCc3ccccc3)NC(=O)C(C)(C)N)C2)C1=O (single isomer, unassigned) [Example 1.32] | 0.011 µM | 0.0003 µM | 
15 | Cc1ccc(COC[C@@H](NC(=O)C(C)(C)N)C(=O)N2CCCC3(C2)C(=O)N(C)CC3c2ccccc2)cc1 (single isomer, unassigned) [Example 1.55] | 0.072 µM | 0.00013 µM | 
16 | CN1CC(c2ccccc2)C2(CCCN(C(=O)[C@@H](CCc3ccccc3)NC(=O)C(C)(C)N)C2)C1=O (single isomer, unassigned) [Example 1.28] | 0.141 µM | 0.00065 µM | 
17 | Cc1ccc(COC[C@@H](NC(=O)C(C)(C)N)C(=O)N2CCCC3(C2)C(=O)N(C)CC3c2ccc(F)cc2)cc1 (stereo partly drawn) [Example 1.72, 2-amino-N-((2R)-1-(4-(4-fluorophenyl)-2-methyl-1-oxo-2,7-diazaspiro[4.5]decan-7-yl)-3-((4-methylbenzyl)oxy)-1-oxopropan-2-yl)-2-methylpropanamide] | 2.56 µM | 0.005 µM | 
18 | CC(C)N1CC(c2ccc(F)cc2)C2(CCCN(C(=O)[C@@H](Cc3cn(C)c4ccccc34)NC(=O)C(C)(C)N)C2)C1=O (single isomer, unassigned) [Example 1.15] | 0.128 µM | 0.0016 µM | 
19 | CN1CC(c2ccc(Cl)cc2)C2(CCCN(C(=O)[C@@H](COCc3ccccc3)NC(=O)C(C)(C)N)C2)C1=O (single isomer, unassigned) [Example 1.8] | 0.162 µM | 0.0003 µM | 
20 | CN1CC(c2ccccc2)C2(CCCN(C(=O)[C@@H](COCc3ccccc3)NC(=O)C(C)(C)N)C2)C1=O (single isomer, unassigned) [Example 1.20] | 2.28 µM | 0.0016 µM | 
21 | CN1CC(c2ccccc2)C2(CCCN(C(=O)[C@@H](COCc3ccccc3)NC(=O)C(C)(C)N)CC2)C1=O (single isomer, unassigned) [Example 9.0(iv)] | 0.086 µM | 0.0004 µM | 
22 | CC(C)(N)C(=O)N[C@H](COCc1ccccc1)C(=O)N1CCCC2(C1)C(=O)NCC2c1ccccc1 (single isomer, unassigned) [Example 1.49] | 0.154 µM | 0.0006 µM | 93%
23 | CN1C[C@H](c2ccccc2)[C@]2(CCCN(C(=O)[C@@H](COCc3ccccc3)NC(=O)C(C)(C)N)C2)C1=O (single isomer, unassigned) [Example 1.0(i)] | 1.34 µM | 0.0023 µM | 
24 | CCC(N)(CC)C(=O)N[C@H](COCc1ccccc1)C(=O)N1CCC[C@@]2(C1)C(=O)N(C)C[C@H]2c1ccccc1 [Example 1.71, 2-amino-N-((R)-3-(benzyloxy)-1-((4S,5R)-2-methyl-1-oxo-4-phenyl-2,7-diazaspiro[4.5]decan-7-yl)-1-oxopropan-2-yl)-2-ethylbutanamide] | 1.14 µM | 0.0054 µM | 
25 | CN1CC(c2ccc(F)cc2)C2(CCCN(C(=O)[C@@H](Cc3c[nH]c4ccccc34)NC(=O)C(C)(C)N)C2)C1=O (single isomer, unassigned) [Example 1.11] | 0.023 µM | 0.0003 µM | 
